Target: T1, Androgen Receptor (AR) protein (Homo sapiens, UniProt P10275, T878A)
T1 construct: endogenous in cells; host or cells: LNCaP
Assay: Androgen Receptor (AR) protein degradation assay in LNCaP cells, western blotting
Type: cell-based
Conditions: 20 h; for inhibition at 0.01 µM: 0.01 μM compound; for inhibition at 0.1 µM: 0.1 μM compound; for inhibition at 1 µM: 1 μM compound
Method in brief: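 LNCaP prostate cancer cells were cultured 3 days, then treated with compound for 20 h. Lysates in 1% SDS buffer were normalised by BCA, and 8 μg protein was run on 4–12% Bis-Tris gels. AR was immunoblotted with chemiluminescence, using GAPDH/β-actin as loading controls.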

T1 sequence (P10275 whole entry T878A): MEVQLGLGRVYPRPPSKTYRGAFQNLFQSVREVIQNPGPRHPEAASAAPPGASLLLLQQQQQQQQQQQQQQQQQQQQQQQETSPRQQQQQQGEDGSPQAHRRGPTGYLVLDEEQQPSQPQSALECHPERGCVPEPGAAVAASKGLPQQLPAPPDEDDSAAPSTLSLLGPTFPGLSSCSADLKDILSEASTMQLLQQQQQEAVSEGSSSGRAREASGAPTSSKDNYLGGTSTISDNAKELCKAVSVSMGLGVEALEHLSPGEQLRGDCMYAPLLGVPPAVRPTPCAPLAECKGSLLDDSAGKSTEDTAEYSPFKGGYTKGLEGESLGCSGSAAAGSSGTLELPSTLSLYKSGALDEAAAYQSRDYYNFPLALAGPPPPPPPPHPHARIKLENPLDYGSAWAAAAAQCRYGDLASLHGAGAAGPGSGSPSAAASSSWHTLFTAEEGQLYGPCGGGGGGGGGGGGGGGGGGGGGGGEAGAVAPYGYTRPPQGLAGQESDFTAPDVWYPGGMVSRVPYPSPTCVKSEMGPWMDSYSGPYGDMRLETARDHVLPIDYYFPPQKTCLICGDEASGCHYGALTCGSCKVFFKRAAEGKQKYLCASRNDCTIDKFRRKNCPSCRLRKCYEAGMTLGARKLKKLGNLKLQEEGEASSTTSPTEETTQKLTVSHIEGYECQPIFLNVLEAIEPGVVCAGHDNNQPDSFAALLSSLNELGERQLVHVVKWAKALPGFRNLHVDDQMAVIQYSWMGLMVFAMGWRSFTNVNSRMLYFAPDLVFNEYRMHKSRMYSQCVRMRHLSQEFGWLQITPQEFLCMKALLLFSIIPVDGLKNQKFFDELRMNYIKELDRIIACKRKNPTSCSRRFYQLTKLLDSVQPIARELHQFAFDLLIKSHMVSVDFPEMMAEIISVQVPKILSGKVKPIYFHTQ
T1 sequence (Q96SW2 whole entry partner): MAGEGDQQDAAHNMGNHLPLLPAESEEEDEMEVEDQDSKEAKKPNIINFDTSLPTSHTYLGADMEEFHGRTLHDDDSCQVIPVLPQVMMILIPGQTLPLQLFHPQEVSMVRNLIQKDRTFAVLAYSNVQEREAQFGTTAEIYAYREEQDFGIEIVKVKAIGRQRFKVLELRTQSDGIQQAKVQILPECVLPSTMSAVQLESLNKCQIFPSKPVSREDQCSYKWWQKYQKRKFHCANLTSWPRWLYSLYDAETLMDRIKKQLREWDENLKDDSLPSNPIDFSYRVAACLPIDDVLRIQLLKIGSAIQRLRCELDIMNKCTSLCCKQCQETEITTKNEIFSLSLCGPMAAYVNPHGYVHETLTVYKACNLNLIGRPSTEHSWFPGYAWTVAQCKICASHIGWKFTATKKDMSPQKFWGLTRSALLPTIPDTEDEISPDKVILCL

For N#Cc1ccc(N2CCC(C(=O)Nc3ccc(N4CC5(CCN(C[C@H]6CCN(c7ccc8c(c7)C(=O)N(C7CCC(=O)NC7=O)C8=O)C6)CC5)C4)cn3)CC2)cc1C(F)(F)F (stereo partly drawn) [Example 125, 1-(4-cyano-3-(trifluoromethyl)phenyl)-N-(5-(7-(((3R)-1-(2-(2,6-dioxopiperidin-3-yl)-1,3-dioxoisoindolin-5-yl)pyrrolidin-3-yl)methyl)-2,7-diazaspiro[3.5]nonan-2-yl)pyridin-2-yl)piperidine-4-carboxamide], which inhibition at 0.01 µM is on record?
The inhibition at 0.01 µM was 25%.

What about the inhibition at 0.1 µM of the same compound?
The inhibition at 0.1 µM was 84%.

What about the inhibition at 1 µM of the same compound?
Its inhibition at 1 µM is 92%.

Which results are given for N#Cc1ccc(N2CCC(C(=O)Nc3ccc(N4CC(CN5CCN(CC6CCN(c7ccc8c(c7)C(=O)N(C7CCC(=O)NC7=O)C8=O)CC6)CC5)C4)cn3)CC2)cc1C(F)(F)F (stereo not shown) [Example 27, 1-(4-cyano-3-(trifluoromethyl)phenyl)-N-(5-(3-((4-((1-(2-(2,6-dioxopiperidin-3-yl)-1,3-dioxoisoindolin-5-yl)piperidin-4-yl)methyl)piperazin-1-yl)methyl)azetidin-1-yl)pyridin-2-yl)piperidine-4-carboxamide]?
inhibition at 0.01 µM: 78%; inhibition at 0.1 µM: 97%; inhibition at 1 µM: 97%

What does the source list for N#Cc1ccc(N2CCC(C(=O)Nc3ccc(N4CCC(CN5CCN(C[C@@H]6CCCN(c7ccc8c(c7)C(=O)N(C7CCC(=O)NC7=O)C8=O)C6)CC5)CC4)cn3)CC2)cc1C(F)(F)F (stereo partly drawn) [Example 17, 1-(4-cyano-3-(trifluoromethyl)phenyl)-N-(5-(4-((4-(((3S)-1-(2-(2,6-dioxopiperidin-3-yl)-1,3-dioxoisoindolin-5-yl)piperidin-3-yl)methyl)piperazin-1-yl)methyl)piperidin-1-yl)pyridin-2-yl)piperidine-4-carboxamide]?
inhibition at 0.01 µM: 44%; inhibition at 0.1 µM: 90%; inhibition at 1 µM: 90%

Which inhibition at 0.01 µM does the source give for CC1(CN2CCN(CC3CCN(c4ccc5c(c4)C(=O)N(C4CCC(=O)NC4=O)C5=O)CC3)CC2)CN(c2ccc(NC(=O)C3CCN(c4ccc(C#N)c(C(F)(F)F)c4)CC3)nc2)C1 (stereo not shown) [Example 179, 1-(4-cyano-3-(trifluoromethyl)phenyl)-N-(5-(3-((4-((1-(2-(2,6-dioxopiperidin-3-yl)-1,3-dioxoisoindolin-5-yl)piperidin-4-yl)methyl)piperazin-1-yl)methyl)-3-methylazetidin-1-yl)pyridin-2-yl)piperidine-4-carboxamide] here?
Its inhibition at 0.01 µM is 73%.

What about the inhibition at 0.1 µM of the same compound?
Its inhibition at 0.1 µM is 98%.

What about the inhibition at 1 µM of the same compound?
Its inhibition at 1 µM is 97%.

N#Cc1ccc(N2CCC(F)(C(=O)Nc3ccc(N4CCC(CN5CCN(C6CCN(c7ccc8c(c7)C(=O)N(C7CCC(=O)NC7=O)C8=O)CC6)CC5)CC4)cn3)CC2)cc1C(F)(F)F (stereo not shown) [Example 72, 1-(4-cyano-3-(trifluoromethyl)phenyl)-N-(5-(4-((4-(1-(2-(2,6-dioxopiperidin-3-yl)-1,3-dioxoisoindolin-5-yl)piperidin-4-yl)piperazin-1-yl)methyl)piperidin-1-yl)pyridin-2-yl)-4-fluoropiperidine-4-carboxamide] was tested. Which inhibition at 0.01 µM did it give?
The inhibition at 0.01 µM was 59%.

What about the inhibition at 0.1 µM of the same compound?
Its inhibition at 0.1 µM is 94%.

And the inhibition at 1 µM?
The inhibition at 1 µM was 97%.

For N#Cc1ccc(N2CCC(CC(=O)Nc3ccc(N4CCC(CN5CC6(CCN(c7ccc8c(c7)C(=O)N(C7CCC(=O)NC7=O)C8=O)CC6)C5)CC4)cn3)C2)cc1C(F)(F)F (stereo not shown) [Example 56, 2-(1-(4-cyano-3-(trifluoromethyl)phenyl)pyrrolidin-3-yl)-N-(5-(4-((7-(2-(2,6-dioxopiperidin-3-yl)-1,3-dioxoisoindolin-5-yl)-2,7-diazaspiro[3.5]nonan-2-yl)methyl)piperidin-1-yl)pyridin-2-yl)acetamide], which inhibition at 0.01 µM is on record?
The inhibition at 0.01 µM was -8%.

And the inhibition at 0.1 µM?
Its inhibition at 0.1 µM is 87%.

And the inhibition at 1 µM?
Its inhibition at 1 µM is 95%.

For CC1(CN2CCC(COc3ccc4c(c3)C(=O)N(C3CCC(=O)NC3=O)C4=O)CC2)CN(c2ccc(NC(=O)C3CCN(c4ccc(C#N)c(C(F)(F)F)c4)CC3)nc2)C1 (stereo not shown) [Example 180, 1-(4-cyano-3-(trifluoromethyl)phenyl)-N-(5-(3-((4-(((2-(2,6-dioxopiperidin-3-yl)-1,3-dioxoisoindolin-5-yl)oxy)methyl)piperidin-1-yl)methyl)-3-methylazetidin-1-yl)pyridin-2-yl)piperidine-4-carboxamide], which inhibition at 0.01 µM is on record?
The inhibition at 0.01 µM was 36%.

And the inhibition at 0.1 µM?
The inhibition at 0.1 µM was 97%.

And the inhibition at 1 µM?
Its inhibition at 1 µM is 98%.

With N#Cc1ccc(N2CCC(C(=O)Nc3ccc(N4CC(CN5CCN(CC6CN(c7ccc8c(c7)C(=O)N(C7CCC(=O)NC7=O)C8=O)C6)CC5)C4)cn3)CC2)cc1C(F)(F)F (stereo not shown) [Example 30, 1-(4-cyano-3-(trifluoromethyl)phenyl)-N-(5-(3-((4-((1-(2-(2,6-dioxopiperidin-3-yl)-1,3-dioxoisoindolin-5-yl)azetidin-3-yl)methyl)piperazin-1-yl)methyl)azetidin-1-yl)pyridin-2-yl)piperidine-4-carboxamide] as the compound, how does the inhibition at 0.01 µM read?
Its inhibition at 0.01 µM is 78%.

And the inhibition at 0.1 µM?
Its inhibition at 0.1 µM is 99%.

And the inhibition at 1 µM?
The inhibition at 1 µM was 97%.

What does the source list for N#Cc1ccc(N2CCC(C(=O)Nc3ccc(N4CCC(CN5CCN(c6ccc7c(c6)C(=O)N(C6CCC(=O)NC6=O)C7=O)CC5)CC4)cn3)CC2)cc1C(F)(F)F (stereo not shown) [Example 1, 1-(4-cyano-3-(trifluoromethyl)phenyl)-N-(5-(4-((4-(2-(2,6-dioxopiperidin-3-yl)-1,3-dioxoisoindolin-5-yl)piperazin-1-yl)methyl)piperidin-1-yl)pyridin-2-yl)piperidine-4-carboxamide]?
inhibition at 0.01 µM: 55%; inhibition at 0.1 µM: 98%; inhibition at 1 µM: 99%; inhibition at 10 µM (10 μM compound): 99%

With C[C@@H]1CN(CC2CCN(c3ccc(NC(=O)C4CCN(c5ccc(C#N)c(C(F)(F)F)c5)CC4)nc3)CC2)CCN1CC1CN(c2ccc3c(c2)C(=O)N(C2CCC(=O)NC2=O)C3=O)C1 (stereo partly drawn) [Example 26, 1-(4-cyano-3-(trifluoromethyl)phenyl)-N-(5-(4-(((3R)-4-((1-(2-(2,6-dioxopiperidin-3-yl)-1,3-dioxoisoindolin-5-yl)azetidin-3-yl)methyl)-3-methylpiperazin-1-yl)methyl)piperidin-1-yl)pyridin-2-yl)piperidine-4-carboxamide] as the compound, how does the inhibition at 0.01 µM read?
The inhibition at 0.01 µM was 75%.

What about the inhibition at 0.1 µM of the same compound?
The inhibition at 0.1 µM was 98%.

What about the inhibition at 1 µM of the same compound?
Its inhibition at 1 µM is 98%.

For N#Cc1ncc(N2CCC(F)(C(=O)Nc3ccc(N4CCC(CN5CCN(CC6CCN(c7ccc8c(c7)C(=O)N(C7CCC(=O)NC7=O)C8=O)CC6)CC5)CC4)cn3)CC2)cc1C(F)(F)F (stereo not shown) [Example 10, 1-(6-cyano-5-(trifluoromethyl)pyridin-3-yl)-N-(5-(4-((4-((1-(2-(2,6-dioxopiperidin-3-yl)-1,3-dioxoisoindolin-5-yl)piperidin-4-yl)methyl)piperazin-1-yl)methyl)piperidin-1-yl)pyridin-2-yl)-4-fluoropiperidine-4-carboxamide], which inhibition at 0.01 µM is on record?
Its inhibition at 0.01 µM is 9%.

What about the inhibition at 0.1 µM of the same compound?
Its inhibition at 0.1 µM is 52%.

And the inhibition at 1 µM?
The inhibition at 1 µM was 74%.

Which inhibition at 0.01 µM does the source give for N#Cc1ccc(N2CCC(C(=O)Nc3ccc(N4CCC(CN5CCN(CC6CCN(c7ccc(C(=O)NC8CCC(=O)NC8=O)nc7)CC6)CC5)CC4)cn3)CC2)cc1C(F)(F)F (stereo not shown) [Example 106, 5-(4-((4-((1-(6-(1-(4-cyano-3-(trifluoromethyl)phenyl)piperidine-4-carboxamido)pyridin-3-yl)piperidin-4-yl)methyl)piperazin-1-yl)methyl)piperidin-1-yl)-N-(2,6-dioxopiperidin-3-yl)picolinamide] here?
Its inhibition at 0.01 µM is 32%.

What about the inhibition at 0.1 µM of the same compound?
Its inhibition at 0.1 µM is 86%.

And the inhibition at 1 µM?
The inhibition at 1 µM was 96%.

For N#Cc1ccc(N2CCC(C(=O)Nc3ccc(CCN4CCC(CN5CCN(c6ccc7c(c6)C(=O)N(C6CCC(=O)NC6=O)C7=O)CC5)CC4)cn3)CC2)cc1C(F)(F)F (stereo not shown) [Example 165, 1-(4-cyano-3-(trifluoromethyl)phenyl)-N-(5-(2-(4-((4-(2-(2,6-dioxopiperidin-3-yl)-1,3-dioxoisoindolin-5-yl)piperazin-1-yl)methyl)piperidin-1-yl)ethyl)pyridin-2-yl)piperidine-4-carboxamide], which inhibition at 0.01 µM is on record?
The inhibition at 0.01 µM was 42%.

And the inhibition at 0.1 µM?
Its inhibition at 0.1 µM is 87%.

And the inhibition at 1 µM?
The inhibition at 1 µM was 95%.

N#Cc1ccc(N2CCC(C(=O)Nc3ccc(N4CCC(CN5CCC(Oc6ccc7c(c6)C(=O)N(C6CCC(=O)NC6=O)C7=O)CC5)CC4)cn3)CC2)cc1C(F)(F)F (stereo not shown) [Example 146, 1-(4-cyano-3-(trifluoromethyl)phenyl)-N-(5-(4-((4-((2-(2,6-dioxopiperidin-3-yl)-1,3-dioxoisoindolin-5-yl)oxy)piperidin-1-yl)methyl)piperidin-1-yl)pyridin-2-yl)piperidine-4-carboxamide] was tested. Which inhibition at 0.01 µM did it give?
Its inhibition at 0.01 µM is 67%.

What about the inhibition at 0.1 µM of the same compound?
The inhibition at 0.1 µM was 97%.

And the inhibition at 1 µM?
Its inhibition at 1 µM is 98%.

Which inhibition at 0.01 µM does the source give for CC1(COc2ccc(NC(=O)C3CCN(c4ccc(C#N)c(C(F)(F)F)c4)CC3)nc2)CN(CC2CCN(c3ccc4c(c3)C(=O)N(C3CCC(=O)NC3=O)C4=O)CC2)C1 (stereo not shown) [Example 186, 1-(4-cyano-3-(trifluoromethyl)phenyl)-N-(5-((1-((1-(2-(2,6-dioxopiperidin-3-yl)-1,3-dioxoisoindolin-5-yl)piperidin-4-yl)methyl)-3-methylazetidin-3-yl)methoxy)pyridin-2-yl)piperidine-4-carboxamide] here?
The inhibition at 0.01 µM was 66%.

And the inhibition at 0.1 µM?
Its inhibition at 0.1 µM is 94%.

And the inhibition at 1 µM?
The inhibition at 1 µM was 96%.

Which results are given for N#Cc1ccc(N2CCC(C(=O)Nc3ccc(N4CC5(CCN(CC6CN(c7ccc8c(c7)C(=O)N(C7CCC(=O)NC7=O)C8=O)C6)CC5)C4)cn3)CC2)cc1C(F)(F)F (stereo not shown) [Example 123, 1-(4-cyano-3-(trifluoromethyl)phenyl)-N-(5-(7-((1-(2-(2,6-dioxopiperidin-3-yl)-1,3-dioxoisoindolin-5-yl)azetidin-3-yl)methyl)-2,7-diazaspiro[3.5]nonan-2-yl)pyridin-2-yl)piperidine-4-carboxamide]?
inhibition at 0.01 µM: 55%; inhibition at 0.1 µM: 91%; inhibition at 1 µM: 97%

For N#Cc1ccc(N2CCC(F)(C(=O)Nc3ccc(N4CCC(CCN5CCN(c6ccc7c(c6)C(=O)N(C6CCC(=O)NC6=O)C7=O)CC5)CC4)cn3)CC2)cc1C(F)(F)F (stereo not shown) [Example 88, 1-(4-cyano-3-(trifluoromethyl)phenyl)-N-(5-(4-(2-(4-(2-(2,6-dioxopiperidin-3-yl)-1,3-dioxoisoindolin-5-yl)piperazin-1-yl)ethyl)piperidin-1-yl)pyridin-2-yl)-4-fluoropiperidine-4-carboxamide], which inhibition at 0.01 µM is on record?
The inhibition at 0.01 µM was 35%.

And the inhibition at 0.1 µM?
The inhibition at 0.1 µM was 87%.

And the inhibition at 1 µM?
Its inhibition at 1 µM is 96%.

Source: patent US12122763B2, “Substituted piperidines for androgen receptor degradation” (UBIX THERAPEUTICS, INC., priority 2020, dated 2024)
